Assay results as given in patent publication US20230143604A1, “QW DOSING OF GIP RECEPTOR AGONIST PEPTIDE COMPOUNDS AND USES THEREOF” (TAKEDA PHARMACEUTICAL COMPANY LIMITED, priority 2020, published 2023).
Starred links: 1 amine or outer side, 2 acyl side, 3 side chain; linkers in the order of their positions; H or OH if unused. Non-standard residues stand in square brackets, D forms with d. Residues, ends and D or L forms follow the SMILES beside them. Groups on a side chain read outwards from the residue. *: point of attachment. C18 diacid = O=C(O)CCCCCCCCCCCCCCCCC(=O)*; C17 diacid = O=C(O)CCCCCCCCCCCCCCCC(=O)*; γGlu = O=C(O)[C@H](CCC(=O)[*:2])N[*:1]; NMeY = CN[C@@H](Cc1ccc(O)cc1)C(=O)O; AEEA = NCCOCCOCC(=O)O; Aib = CC(C)(N)C(=O)O

Assay: physchem
In short: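 3 mg of peptide treated with 100 μL portions of 200 mM phosphate buffer pH 7.4, sonicating/vortexing up to 1 min, with further buffer added until fully dissolved. Solubility then quantified by HPLC.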

| SMILES | solubility (pH 7.4, aqueous buffer) | solubility (pH 7.4) |
| --- | --- | --- |
| CC[C@H](C)[C@H](NC(=O)[C@H](CO)NC(=O)[C@H](Cc1ccc(O)cc1)NC(=O)[C@H](CC(=O)O)NC(=O)[C@H](CO)NC(=O)[C@@H](NC(=O)[C@H](Cc1ccccc1)NC(=O)[C@@H](NC(=O)CNC(=O)[C@H](CCC(=O)O)NC(=O)C(C)(C)NC(=O)[C@H](Cc1ccc(O)cc1)NC)[C@@H](C)O)[C@@H](C)CC)C(=O)N[C@@H](C)C(=O)N[C@@H](CCCCNC(=O)CNC(=O)CNC(=O)CNC(=O)CNC(=O)CNC(=O)CCCCCCCCCCCCCCCCC(=O)O)C(=O)N[C@@H](CC(=O)O)C(=O)N[C@@H](CCCCN)C(=O)NC(C)(C)C(=O)N[C@@H](Cc1c[nH]cn1)C(=O)N[C@@H](CCC(N)=O)C(=O)NC(C)(C)C(=O)N[C@@H](CC(N)=O)C(=O)N[C@@H](Cc1ccccc1)C(=O)N[C@H](C(=O)N[C@@H](CC(N)=O)C(=O)N[C@@H](Cc1c[nH]c2ccccc12)C(=O)N[C@@H](CC(C)C)C(=O)N[C@@H](CC(C)C)C(=O)N[C@@H](C)C(=O)N[C@@H](CCC(N)=O)C(=O)N[C@@H](CCCCN)C(=O)NCC(=O)N[C@@H](CCCCN)C(=O)N[C@@H](CCCCN)C(=O)N[C@@H](CC(N)=O)C(=O)N[C@@H](CC(N)=O)C(=O)N[C@@H](Cc1c[nH]c2ccccc12)C(=O)N[C@@H](CCCCN)C(=O)N[C@@H](Cc1c[nH]cn1)C(=O)N[C@@H](CC(N)=O)C(N)=O)C(C)C [Compound 281] | < 15 mg/mL | – |
| CC[C@H](C)[C@H](NC(=O)[C@H](CO)NC(=O)[C@H](Cc1ccc(O)cc1)NC(=O)[C@H](CC(=O)O)NC(=O)[C@H](CO)NC(=O)[C@@H](NC(=O)[C@H](Cc1ccccc1)NC(=O)[C@@H](NC(=O)CNC(=O)[C@H](CCC(=O)O)NC(=O)C(C)(C)NC(=O)[C@H](Cc1ccc(O)cc1)NC)[C@@H](C)O)[C@@H](C)CC)C(=O)N[C@@H](C)C(=O)N[C@@H](CCCCNC(=O)COCCOCCNC(=O)COCCOCCNC(=O)CC[C@H](NC(=O)CCCCCCCCCCCCCCCC(=O)O)C(=O)O)C(=O)N[C@@H](CC(=O)O)C(=O)N[C@@H](CCCNC(=N)N)C(=O)NC(C)(C)C(=O)N[C@@H](C)C(=O)N[C@@H](CCC(N)=O)C(=O)NC(C)(C)C(=O)N[C@@H](CC(N)=O)C(=O)N[C@@H](Cc1ccccc1)C(=O)N[C@H](C(=O)N[C@@H](CC(N)=O)C(=O)N[C@@H](Cc1c[nH]c2ccccc12)C(=O)N[C@@H](CC(C)C)C(=O)N[C@@H](CC(C)C)C(=O)N[C@@H](C)C(=O)N[C@@H](CCC(N)=O)C(=O)N[C@@H](CO)C(=O)O)C(C)C [Compound 10] (H-[NMeY][Aib]EGTFISDYSIAK([AEEA-AEEA-γGlu-C17 diacid])DR[Aib]AQ[Aib]NFVNWLLAQS-OH) | ≥ 30 mg/mL | ≥ 15 mg/mL |
| CC[C@H](C)[C@H](NC(=O)[C@H](CO)NC(=O)[C@H](Cc1ccc(O)cc1)NC(=O)[C@H](CC(=O)O)NC(=O)[C@H](CO)NC(=O)[C@@H](NC(=O)[C@H](Cc1ccccc1)NC(=O)[C@@H](NC(=O)CNC(=O)[C@H](CCC(=O)O)NC(=O)C(C)(C)NC(=O)[C@H](Cc1ccc(O)cc1)NC)[C@@H](C)O)[C@@H](C)CC)C(=O)N[C@@H](C)C(=O)N[C@@H](CC(C)C)C(=O)N[C@@H](CC(=O)O)C(=O)N[C@@H](CCCNC(=N)N)C(=O)NC(C)(C)C(=O)N[C@@H](C)C(=O)N[C@@H](CCC(N)=O)C(=O)NC(C)(C)C(=O)N[C@@H](CCCCNC(=O)COCCOCCNC(=O)COCCOCCNC(=O)CC[C@H](NC(=O)CC[C@H](NC(=O)CCCCCCCCCCCCCCCCC(=O)O)C(=O)O)C(=O)O)C(=O)N[C@@H](Cc1ccccc1)C(=O)N[C@H](C(=O)N[C@@H](CC(N)=O)C(=O)N[C@@H](Cc1c[nH]c2ccccc12)C(=O)N[C@@H](CC(C)C)C(=O)N[C@@H](CC(C)C)C(=O)N[C@@H](C)C(=O)N[C@@H](CCC(N)=O)C(=O)N[C@@H](CO)C(=O)NCC(=O)O)C(C)C [Compound 42] (H-[NMeY][Aib]EGTFISDYSIALDR[Aib]AQ[Aib]K([AEEA-AEEA-γGlu-γGlu-C18 diacid])FVNWLLAQSG-OH) | ≥ 30 mg/mL | ≥ 15 mg/mL |
| CC[C@H](C)[C@H](NC(=O)[C@H](Cc1ccccc1)NC(=O)[C@@H](NC(=O)CNC(=O)[C@H](CCC(=O)O)NC(=O)C(C)(C)NC(=O)[C@@H](N)Cc1ccc(O)cc1)[C@@H](C)O)C(=O)N[C@@H](CO)C(=O)N[C@@H](CC(=O)O)C(=O)N[C@@H](Cc1ccc(O)cc1)C(=O)N[C@@H](CO)C(=O)N[C@H](C(=O)NC(C)(C)C(=O)N[C@@H](CCCCNC(=O)CNC(=O)CNC(=O)CNC(=O)CNC(=O)CNC(=O)CCCCCCCCCCCCCCCCC(=O)O)C(=O)N[C@@H](CC(=O)O)C(=O)N[C@@H](CCCNC(=N)N)C(=O)NC(C)(C)C(=O)N[C@@H](C)C(=O)N[C@@H](CCC(N)=O)C(=O)N[C@@H](CCCNC(=N)N)C(=O)N[C@@H](CC(=O)O)C(=O)N[C@@H](Cc1ccccc1)C(=O)N[C@H](C(=O)N[C@@H](CCC(=O)O)C(=O)N[C@@H](Cc1c[nH]c2ccccc12)C(=O)N[C@@H](CC(C)C)C(=O)N[C@@H](CC(C)C)C(=O)N[C@@H](C)C(=O)N[C@@H](CCC(N)=O)C(=O)N[C@@H](CCCNC(=N)N)C(=O)NCC(=O)O)C(C)C)[C@@H](C)CC [Compound 147] | – | ≥ 15 mg/mL |
| CC[C@H](C)[C@H](NC(=O)[C@H](CO)NC(=O)[C@H](Cc1ccc(O)cc1)NC(=O)[C@H](CC(=O)O)NC(=O)[C@H](CO)NC(=O)[C@@H](NC(=O)[C@H](Cc1ccccc1)NC(=O)[C@@H](NC(=O)CNC(=O)[C@H](CCC(=O)O)NC(=O)C(C)(C)NC(=O)[C@H](Cc1ccc(O)cc1)NC)[C@@H](C)O)[C@@H](C)CC)C(=O)N[C@@H](C)C(=O)N[C@@H](CC(C)C)C(=O)N[C@@H](CC(=O)O)C(=O)N[C@@H](CCCNC(=N)N)C(=O)NC(C)(C)C(=O)N[C@@H](C)C(=O)N[C@@H](CCC(N)=O)C(=O)NC(C)(C)C(=O)N[C@@H](CCCCNC(=O)COCCOCCNC(=O)COCCOCCNC(=O)CC[C@H](NC(=O)CC[C@H](NC(=O)CCCCCCCCCCCCCCCCC(=O)O)C(=O)O)C(=O)O)C(=O)N[C@@H](Cc1ccccc1)C(=O)N[C@H](C(=O)N[C@@H](CC(N)=O)C(=O)N[C@@H](Cc1c[nH]c2ccccc12)C(=O)N[C@@H](CC(C)C)C(=O)N[C@@H](CC(C)C)C(=O)N[C@@H](C)C(=O)N[C@@H](CCC(N)=O)C(=O)N[C@@H](CCCNC(=N)N)C(N)=O)C(C)C [Compound 269] (H-[NMeY][Aib]EGTFISDYSIALDR[Aib]AQ[Aib]K([AEEA-AEEA-γGlu-γGlu-C18 diacid])FVNWLLAQR-NH2) | ≥ 7.5 mg/mL | – |
| CC[C@H](C)[C@H](NC(=O)[C@H](Cc1ccccc1)NC(=O)[C@@H](NC(=O)CNC(=O)[C@H](CCC(=O)O)NC(=O)C(C)(C)NC(=O)[C@H](Cc1ccc(O)cc1)NC)[C@@H](C)O)C(=O)N[C@@H](CO)C(=O)N[C@@H](CC(=O)O)C(=O)N[C@@H](Cc1ccc(O)cc1)C(=O)N[C@@H](CO)C(=O)N[C@H](C(=O)NC(C)(C)C(=O)N[C@@H](CC(C)C)C(=O)N[C@@H](CC(=O)O)C(=O)N[C@@H](CCCNC(=N)N)C(=O)N[C@@H](CCCCNC(=O)CNC(=O)CNC(=O)CNC(=O)CNC(=O)CNC(=O)CCCCCCCCCCCCCCCCC(=O)O)C(=O)N[C@@H](C)C(=O)N[C@@H](CCC(N)=O)C(=O)NC(C)(C)C(=O)N[C@@H](CC(=O)O)C(=O)N[C@@H](Cc1ccccc1)C(=O)N[C@H](C(=O)N[C@@H](CC(N)=O)C(=O)N[C@@H](Cc1c[nH]c2ccccc12)C(=O)N[C@@H](CC(C)C)C(=O)N[C@@H](CC(C)C)C(=O)N[C@@H](C)C(=O)N[C@@H](CCC(N)=O)C(=O)N[C@@H](CCCNC(=N)N)C(=O)NCC(=O)O)C(C)C)[C@@H](C)CC [Compound 284] | < 15 mg/mL | – |
| CC[C@H](C)[C@H](NC(=O)[C@H](Cc1ccccc1)NC(=O)[C@@H](NC(=O)CNC(=O)[C@H](CCC(=O)O)NC(=O)C(C)(C)NC(=O)[C@H](Cc1ccc(O)cc1)NC)[C@@H](C)O)C(=O)N[C@@H](CO)C(=O)N[C@@H](CC(=O)O)C(=O)N[C@@H](Cc1ccc(O)cc1)C(=O)N[C@@H](CO)C(=O)N[C@H](C(=O)NC(C)(C)C(=O)N[C@@H](CCCCNC(=O)CNC(=O)CNC(=O)CNC(=O)CNC(=O)CNC(=O)CC[C@H](NC(=O)CC[C@H](NC(=O)CCCCCCCCCCCCCCCC(=O)O)C(=O)O)C(=O)O)C(=O)N[C@@H](CC(=O)O)C(=O)N[C@@H](CCCNC(=N)N)C(=O)NC(C)(C)C(=O)N[C@@H](C)C(=O)N[C@@H](CCC(N)=O)C(=O)NC(C)(C)C(=O)N[C@@H](CC(N)=O)C(=O)N[C@@H](Cc1ccccc1)C(=O)N[C@H](C(=O)N[C@@H](CC(N)=O)C(=O)N[C@@H](Cc1c[nH]c2ccccc12)C(=O)N[C@@H](CC(C)C)C(=O)N[C@@H](CC(C)C)C(=O)N[C@@H](C)C(=O)N[C@@H](CCC(N)=O)C(=O)N[C@@H](CCCNC(=N)N)C(N)=O)C(C)C)[C@@H](C)CC [Compound 264] | < 6 mg/mL | – |
| CC[C@H](C)[C@H](NC(=O)[C@H](CO)NC(=O)[C@H](Cc1ccc(O)cc1)NC(=O)[C@H](CC(=O)O)NC(=O)[C@H](CO)NC(=O)[C@@H](NC(=O)[C@H](Cc1ccccc1)NC(=O)[C@@H](NC(=O)CNC(=O)[C@H](CCC(=O)O)NC(=O)C(C)(C)NC(=O)[C@H](Cc1ccc(O)cc1)NC)[C@@H](C)O)[C@@H](C)CC)C(=O)N[C@@H](C)C(=O)N[C@@H](CC(C)C)C(=O)N[C@@H](CC(=O)O)C(=O)N[C@@H](CCCCN)C(=O)N[C@@H](C)C(=O)N[C@@H](C)C(=O)N[C@@H](CCC(N)=O)C(=O)NC(C)(C)C(=O)N[C@@H](CCCCNC(=O)COCCOCCNC(=O)COCCOCCNC(=O)CC[C@H](NC(=O)CC[C@H](NC(=O)CCCCCCCCCCCCCCCCC(=O)O)C(=O)O)C(=O)O)C(=O)N[C@@H](Cc1ccccc1)C(=O)N[C@H](C(=O)N[C@@H](CCC(=O)O)C(=O)N[C@@H](Cc1c[nH]c2ccccc12)C(=O)N[C@@H](CC(C)C)C(=O)N[C@@H](CC(C)C)C(=O)N[C@@H](C)C(=O)N[C@@H](CCC(N)=O)C(=O)N[C@@H](CCCNC(=N)N)C(=O)NCC(=O)O)C(C)C [Compound 174] (H-[NMeY][Aib]EGTFISDYSIALDKAAQ[Aib]K([AEEA-AEEA-γGlu-γGlu-C18 diacid])FVEWLLAQRG-OH) | ≥ 30 mg/mL | ≥ 15 mg/mL |
